Measurements reported in PubChem BioAssay (NCI).
Values joined by “and” are separate entries in the source; they are usually repeats but may differ in a detail not shown here. Identical values can stand only once.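 Values below derive from 48-hour exposures of cells grown in 96-well plates, with endpoints linearly interpolated between the two concentrations bracketing the appropriate inhibition level. GI50 is the concentration that inhibits growth by half. TGI: total growth inhibition.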

Legend:
Assay in all cases: growth of human tumour cells (NCI), 48 h
[1] = tested on: U251 CNS
[2] = tested on: SNB-75 CNS
[3] = tested on: HCT-116 colon
[4] = tested on: UACC-62 melanoma
[5] = tested on: EKVX NSCLC
[6] = tested on: K-562 leukemia
[7] = tested on: LOX IMVI melanoma
[8] = tested on: 786-0 renal
[9] = tested on: T-47D breast
[10] = tested on: BT-549 breast

Row | Structure (SMILES) | TGI [1] | TGI [2] [µM] | TGI [3] | TGI [4] | TGI [5] | TGI [6] | TGI [7] | TGI [8] | GI50 [1] [µM] | GI50 [2] [µM] | GI50 [3] [µM] | GI50 [4] [µM] | GI50 [5] [µM] | GI50 [6] [µM] | GI50 [9] [µM] | TGI [9] | GI50 [7] [µM] | GI50 [8] [µM] | GI50 [10] [µM] | TGI [10]
1 | Cn1c(=O)nc2n(-c3cccc(F)c3)c3ccccc3nc-2c1=O | 48.9 µM | 78.5 | 77.8 µM | 13 µM | 32.5 µM | 58.1 µM | 61.8 µM | > 100 µM | – | – | – | – | – | – | – | – | – | – | – | –
2 | Nc1nnc2cc(Cl)ccc2n1 | > 100 µM | > 100 | > 100 µM | > 100 µM | > 100 µM | > 100 µM | > 100 µM | > 100 µM | > 100 | 9.06 | > 100 | > 100 | 23.6 | > 100 | > 100 | > 100 µM | > 100 | > 100 | – | –
3 | COc1cc2c3c(c1)c1cc(OC)c(OC)cc1c[n+]3CC2 | 50 µM and 25.9 µM | – | 50 µM and > 100 µM | 50 µM and > 100 µM | 50 µM and > 100 µM | 50 µM and > 100 µM | 50 µM and > 100 µM | 50 µM and > 100 µM | 1.28 | – | 40.5 | 28.7 | > 100 | 40.5 | 6.74 | 34.2 µM and 72.4 µM | 35.5 | 56.2 | 7.23 | 22.7 µM and 55.2 µM
4 | Cc1nc2ccc(Nc3nc(NCCN4CCOCC4)nc(Nc4ccc(F)cc4)n3)cc2n1Cc1ccccc1 | – | 4.82 | 5.43 µM | 6.18 µM | – | 7.42 µM | – | 3.04 µM | – | 1.59 | 2.02 | 2.27 | – | 1.79 | 2.66 | 18.8 µM | – | 1.41 | 2.13 | 9.33 µM
5 | CCNC(=O)C#CC(=O)NCC | > 100 µM | > 100 | > 10 µM and 47.7 µM | > 100 µM | > 100 µM | > 70.2 µM | > 100 µM | > 100 µM | > 10 | > 10 | > 10 | > 10 | > 10 | > 10 | – | – | > 10 | > 10 | – | –
6 | CC(=O)OCCOCNC(=S)N/N=C(\C)c1cnc2ccccc2n1 | > 100 µM | > 100 | > 100 µM | 39.7 µM | > 100 µM | > 100 µM | > 100 µM | > 100 µM | – | – | – | – | – | – | – | – | – | – | – | –
7 | C=C=C(CC)C(C(=O)OC)N(CC)CC (centres undefined) | > 100 µM | > 100 | > 100 µM | > 100 µM | > 100 µM | > 100 µM | > 100 µM | > 100 µM | – | – | – | – | – | – | – | – | – | – | – | –
8 | O=C1C[C@@H]2C(COC(=O)c3ccccc3)N(OCc3ccccc3)C[C@@H]2O1 (some centres undefined) | > 100 µM | > 100 | > 100 µM | > 100 µM | > 100 µM | > 100 µM | > 100 µM | > 100 µM | – | – | – | – | – | – | – | – | – | – | – | –
9 | COc1ccc2c(c1OC)C1=C(C2=O)c2cc3c(cc2CCN1)OCO3 | – | 5.9 | > 100 µM | > 100 µM | > 100 µM | 87.8 µM | 61.1 µM | > 100 µM | – | – | – | – | – | – | – | – | – | – | – | –
10 | CN1NC2(CCCCC2)ON=C1c1ccccc1 | > 100 µM | > 100 | > 100 µM | > 100 µM | > 100 µM | > 100 µM | > 100 µM | > 100 µM | – | – | – | – | – | – | – | – | – | – | – | –
11 | C(=N\OCc1ccccc1)/c1ncccc1C1OCCO1 | > 100 µM | > 100 | > 100 µM | > 100 µM | > 100 µM | > 100 µM | > 100 µM | > 100 µM | – | – | – | – | – | – | – | – | – | – | – | –
12 | CC/C=C\C[C@H](O)C/C=C1/C(=O)C=C[C@@H]1C/C=C\CCCC(=O)N(C)C | 3.91 µM | 33.4 | 1.68 µM | 5.12 µM | 15.6 µM | > 100 µM | 1.54 µM | 2.09 µM | 1.32 | 10.9 | 0.44 | 2.2 | 3.92 | 1.02 | 2.57 | 11.8 µM | 0.356 | 0.504 | – | –
13 | Cc1c(C(=O)c2ccccc2C(=O)O)c2ccccc2n1C | > 100 µM | > 100 | > 100 µM | > 100 µM | > 100 µM | > 100 µM | – | > 100 µM | – | – | – | – | – | – | – | – | – | – | – | –
14 | CC(=O)O[C@H]1CC[C@@]2(C)C(=CC[C@H]3C4=CC=C(C(C)=O)[C@@]4(C)CCC32)C1 (some centres undefined) | > 100 µM | > 100 | 36.9 µM | 46.8 µM | > 100 µM | – | 43.8 µM | > 100 µM | – | – | – | – | – | – | – | – | – | – | – | –
15 | CN(C)C(N)=NC#N | > 100 µM | > 100 | > 100 µM | > 100 µM | > 100 µM | > 100 µM | – | > 100 µM | – | – | – | – | – | – | – | – | – | – | – | –
16 | CC(=O)O[C@H]1CC[C@@]2(C)C(=CC[C@H]3[C@@H]4C/C(=C\c5cccc(OCCN6CCOCC6)c5)[C@H](OC(C)=O)[C@@]4(C)CC[C@@H]32)C1 | 16.6 µM | 22.8 | 15.9 µM | 19.1 µM | 36.7 µM | 12.5 µM | 18.4 µM | 7.96 µM | 4.58 | 3.85 | 4.1 | 6.1 | 11 | 2.95 | 4.18 | 22.5 µM | 5.94 | 2.63 | – | –
17 | CCC(=O)C(C)C1=Nc2nnc(CCCCCCCc3nnc4n3C(=O)C(C(C)C(=O)CC)=N4)n2C1=O (centres undefined) | > 100 µM | > 100 | > 100 µM | > 100 µM | > 100 µM | > 100 µM | > 100 µM | > 100 µM | – | – | – | – | – | – | – | – | – | – | – | –
18 | Cc1ccc(S(=O)(=O)NC(=O)NC23CC4CC(CC(F)(C4)C2)C3)cc1 | > 100 µM | > 100 | > 100 µM | > 100 µM | > 100 µM | > 100 µM | > 100 µM | > 100 µM | – | – | – | – | – | – | – | – | – | – | – | –
19 | C1CCN(c2nsc(N3CCCCC3)n2)CC1 | > 100 µM | > 100 | > 100 µM | > 100 µM | > 100 µM | > 100 µM | > 100 µM | > 100 µM | – | – | – | – | – | – | – | – | – | – | – | –
20 | COc1cccc(NC(=O)CC(=O)N2N=C(N(CCC#N)c3ccccc3C)CC2c2ccccc2)c1 (centres undefined) | > 100 µM | > 100 | > 100 µM | > 100 µM | > 100 µM | > 100 µM | – | > 100 µM | – | – | – | – | – | – | – | – | – | – | – | –
